This note sets out measurements from publication PMC7341485 (Chemical research in toxicology, 2019).

For orientation: IC50 means the point on the concentration scale where inhibition reaches its midpoint.

For data set [1], the system named is iPSC-derived cortical glutamatergic neurons. The data set can be described thus: Neurite outgrowth assay in iPSC-derived neurons. Type of data set: cell-based, human. The settings on record: for IC50: Homo sapiens, Neuron, 24 h, read-out: IC50 of neurite outgrowth inhibition.
Data set [2] concerns TGFβ, WNT, RAR and SHH pathways. Description: Profile across developmental pathways. Type of data set: cell-based. The settings on record: sodium dimethyldithiocarbamate at 10 μM.
Data set [3] relates to RAR pathway, RARE-luc C3RL4 cells. The data set can be described thus: RAR-luc reporter gene assay. Type of data set: cell-based. The settings on record: 6 h.
Data set [4] has as its system TGFβ/SMAD signaling (SMAD2/3/4 complex), SBE-bla HEK 293T cells. The data set can be described thus: SBE-bla antagonist assay. Type of data set: cell-based, human. The settings on record: for SBE Antagonist Efficacy: activity %, TGFβ1 only = 0, DMSO = -100.
For data set [5], the system named is SHH pathway, Gli1-luc NIH/3T3 cells. Description: SHH-luc reporter gene assay. Type of data set: cell-based. On the technique in general: In a reporter assay the amount or activity of a reporter protein is the signal.
Data set [6] relates to WNT pathway, TCF/LEF-luc HEK293 cells. Description: WNT-luc reporter gene assay. Format: cell-based, human.
Data set [7] deals with SBE-bla HEK 293T cells.
Data set [8] has as its system SMAD2/3/4 signaling, SBE-bla HEK 293T cells. Description: SBE-bla assay, activation by native TGFR ligands. The settings on record: Figure 2A. Type of data set: cell-based, human.
The mark [9] stands for this setting: Homo sapiens, HEK-293T, read-out: IC50 in SBE-bla assay, primary screening.

Entries after “also recorded” stand apart in the source; their conditions may differ. Counter-ions that a name gives are not always drawn. Like-named read-outs stand apart in the source and are kept apart here.

As for `Nc1ncn([C@@H]2O[C@H](CO)[C@@H](O)[C@H]2O)c(=O)n1` [5-Azacitidine], the “inhibition of neurite outgrowth, in words” value in data set [1] (24 h treatment, Figure 5D) is “inhibited neurite outgrowth”. Take `CN1C(=O)N(c2ccccc2Br)Cc2cnc(Nc3ccc4c(c3)OCC(CO)O4)nc21` (stereo not drawn) [PharmaGSID_48519]: in data set [1], the “inhibition of neurite outgrowth, in words” value is listed as “did not inhibit neurite outgrowth; also recorded: didn’t inhibit neurite outgrowth”. `CCCCN(CCCC)C(=S)[S-].[Na+]` [Sodium dibutylcarbamodithioate]: the “inhibition of developmental pathways, in words” value in data set [2] was “inactive”. Also, in data set [3] (retinol stimulated), the “RAR Antagonist Efficacy” value is given as “Inactive” and the “RAR Antagonist IC50” value was “Inactive”. The “SBE Antagonist IC50” value in data set [4] (TGFβ1-induced SBE-bla activity, HEK 293T, 5 h, Tables 2 and 3) is “Inactive”. Moreover, in data set [4], the “SBE Antagonist Efficacy” value is “Inactive”. For the same molecule, in data set [5] (conditioned medium, 24 h), the “SHH Antagonist Efficacy” value is given as “Inactive” and the “SHH Antagonist IC50” value was “Inactive”. In addition, in data set [6] (WNT-3a stimulated, 24 h), the “WNT Antagonist Efficacy” value is listed as “Inactive” and the “WNT Antagonist IC50” value was “Inactive”. As for `CCN(CC)C(=S)S` [Sodium diethyldithiocarbamate], the IC50 in data set [3] (read-out: RAR Antagonist IC50) was found to be 15.3 µM; in data set [4] (Homo sapiens, HEK-293T, 5 h, read-out: SBE Antagonist IC50), 11500 nM; in data set [5] (Mus musculus, NIH3T3, 24 h, read-out: SHH Antagonist IC50) it was 8.92 µM; in data set [6] (Homo sapiens, HEK293, 24 h, read-out: WNT Antagonist IC50), 3.69 µM. In addition, the “RAR Antagonist Efficacy” value in data set [3] (retinol stimulated) is on record as −113.16%. Moreover, the “SBE Antagonist Efficacy” value in data set [4] was −58.53%. Also, the “SHH Antagonist Efficacy” value in data set [5] (conditioned medium, 24 h) is −96.63%. For the same molecule, the “WNT Antagonist Efficacy” value in data set [6] (WNT-3a stimulated, 24 h) is recorded as −74.76%. As for `CN(C)C(=S)SSC(=S)N(C)C` [Thiram], the IC50 in data set [1] amounted to 100 nM. Take `CC(C)C[C@H](NC(=O)[C@H](Cc1ccccc1)NC(=O)c1cnccn1)B(O)O` [bortezomib]: in data set [1] (24 h treatment, Figure 5D), the “inhibition of neurite outgrowth, in words” value is given as “inhibited neurite outgrowth”. Same read-out and setting: next, `C=CC(=O)Nc1cc2c(Nc3ccc(F)c(Cl)c3)ncnc2cc1OCCCN1CCOCC1` [canertinib]: “inhibited neurite outgrowth”.

`CN(C)C(=S)[S-].CN(C)C(=S)[S-].[Cu+2]` [copper dimethyl dithiocarbamates]: the IC50 in data set [4] (read-out: IC50 in SBE-bla assay, DTC cluster k35.18, Figure 3B) was determined as 1620 nM. As for `Cc1nc(Nc2ncc(C(=O)Nc3c(C)cccc3Cl)s2)cc(N2CCN(CCO)CC2)n1` [dasatinib], the “inhibition of neurite outgrowth, in words” value in data set [1] (24 h treatment, Figure 5D) was “did not inhibit neurite outgrowth; also recorded: didn’t inhibit neurite outgrowth”. Further, the IC50 in data set [4] (setting [9]) amounted to 260 nM. On to `S=C(SSC(=S)N1CCCCC1)N1CCCCC1` [dicyclopentamethylenethiuram, dicyclopentamethylenethiuram disulfide], for which the IC50 came out at 820 nM in data set [1] and 580 nM in data set [4] (Homo sapiens, HEK-293T, read-out: IC50 in SBE-bla assay, DTC cluster k35.18). For the molecule `CCN(CC)C(=S)SSC(=S)N(CC)CC` [disulfiram], the IC50 in data set [1] turned out to be 180 nM.

Consider `CN1CC[C@H](c2c(O)cc(O)c3c(=O)cc(-c4ccccc4Cl)oc23)[C@H](O)C1` [flavopiridol hydrochloride, reference compound], for which, in data set [1] (24 h treatment, Figure 5D), the “inhibition of neurite outgrowth, in words” value is listed as “inhibited neurite outgrowth”. The IC50 in data set [4] (setting [9]) was 20 nM. Take `CC(=O)[C@]1(O)Cc2c(O)c3c(c(O)c2[C@@H](O[C@H]2C[C@H](N)[C@H](O)[C@H](C)O2)C1)C(=O)c1ccccc1C3=O` [idarubicin hydrochloride]: the “inhibition of neurite outgrowth, in words” value in data set [1] (24 h treatment, Figure 5D) is given as “inhibited neurite outgrowth”. Regarding `COc1cccc2c1C(=O)c1c(O)c3c(c(O)c1C2=O)C[C@@](O)(C(=O)CO)C[C@@H]3O[C@H]1C[C@H](N2CCO[C@H](OC)C2)[C@H](O)[C@H](C)O1` [nemorubicin], the “inhibition of neurite outgrowth, in words” value in data set [1] was “inhibited neurite outgrowth”. For `[F][Sn]([c]1ccccc1)([c]1ccccc1)[c]1ccccc1` [triphenyltin fluoride], the “fold less cytotoxic in SBE-bla HEK 293T cells than in NSCs” value (from here on “fold less cytotoxic”) in data set [7] turned out to be 10 fold. Turning to `CC[C@]1(O)C[C@@H]2CN(CCc3c([nH]c4ccccc34)[C@@](C(=O)OC)(c3cc4c(cc3OC)N(C)[C@H]3[C@@](O)(C(=O)OC)[C@H](OC(C)=O)[C@]5(CC)C=CCN6CC[C@]43[C@@H]65)C2)C1` [vinblastine sulfate], the “inhibition of neurite outgrowth, in words” value in data set [1] (24 h treatment, Figure 5D) is “inhibited neurite outgrowth”. Take TGFβ1: native TGFR ligand, human TGFβ1: the “EC50 of activation of SBE-bla activity” value in data set [8] was 0.11 ng/mL. Same read-out and setting: next, TGFβ2: native TGFR ligand: 0.11 ng/mL; TGFβ3: native TGFR ligand: 0.11 ng/mL. Consider dibutyltin, for which the “fold less cytotoxic” value in data set [7] was 10 fold. Regarding phenylmercuric acetate, the “fold less cytotoxic” value in data set [7] is recorded as 10 fold.
